These results are taken from patent US20260242440A1, “NOVEL MEANS TO MODULATE NMDA RECEPTOR-MEDIATED TOXICITY” (FUNDAMENTAL PHARMA GMBH, priority 2018, published 2026).

One assay deals with NMDA receptor. The assay can be described thus: NMDA-induced calcium transients (Fura2 calcium imaging). Type of assay: cell-based, mouse. Conditions: hippocampal neurons, 6 min NMDA (20 μM) application. The procedure: In a further experiment, the impact of P4 and P15 on NMDA-induced calcium transients was assessed. Briefly, for calcium imaging, primary hippocampal neurons on coverslips were loaded with the cell-permeable, high-affinity ratiometric calcium indicator Fura2-AM (Invitrogen™ F1221), at 1 μM in CO2-independent culture medium (CICM; CICM contains: 10 mM HEPES, 140 mM NaCl, 2.5 mM KCl, 1.0 mM MgCl2, 2.0 mM CaCl2, 1.0 mM Glycine, 35.6 mM Glucose and 0.5 mM Na-pyruvate) for 30 min at 37° C., then washed and left in CICM for another 30 min to allow for de-esterification. Fura2 was excited at 340/11 nm and 380/11 nm, and fluorescence emission was obtained from a 40× UV compatible objective (LUMPLFLN, Olympus) through a 510/20 nm emission filter. For quantification, ImageJ was used to calculate average background-subtracted fluorescence intensities for 340 and 380 nm excitation (F340 and F380) from each neuron. Intracellular calcium levels were plotted as F340/F380 ratios over time, from which the NMDA response amplitude and area under the curve (AUC) was calculated to quantify NMDA-induced calcium influx.

The subject of the next assay is HEK293 cells. The assay can be described thus: Luminescent cytotoxicity assay, HEK293 cells transfected with GRIN1 and GRIN2A or GRIN2B. Type of assay: cell-based, human. The settings on record: compound added 6 h after transfection; cell death 48 h after transfection. The procedure:
HEK293 cells were cultured in Dulbecco's Modified Eagle Medium (DMEM, Gibco™ 41965-039) supplement with 10% Fetal Bovine Serum (FBS, Gibco™, 10270), 1% Sodium Pyruvate (Gibco™, 11360070), 1% MEM NEAA (GibcoT^M, 11140035) and 0.5% Penicillin-Streptomycin (P-S; Sigma, P0781) and Passagel5-25 were used for experiments.
To test the cytotoxicity of compounds according to the present invention, HEK293 cells (70-80% confluent) were transfected 24 hours after plating with both GRIN1 and GRIN2 Å or GRIN2B, respectively (1:[…]) with Lipofectamine 2000 according to manufacturer's instructions. The relative number of dead cells in the population at the indicated time points after transfection was measured with the CytoTox-Glo™ Cytotoxicity assay (Promega, G9290) according to manufacturer's instruction with minor modification. Briefly, 10% of total medium were mixed with 10 μL AAF-amino luciferin to reach a final volume at 200 μL with water, the dead cell relative luminescence units (DRLU) was measured by GloMax (Promega) in a 96 well white bottom polystyrene microplate (Corning Costar®, 3912). After all the measurements, lysis reagents have been added to the cells and 10% of lysate was used for the total cell relative luminescence units (TRLU) measurement. Cell death was calculated by the following equations: […]
For drug testing, P4, P8, P9, P13 and P15 were added to the medium at indicated concentration 6 h after transfection. DRLU, TRLU and cell death were measured and calculated 48 h after transfection.

Assay [1] concerns primary mouse hippocampal neurons. The assay can be described thus: NMDA receptor induced mitochondrial membrane potential breakdown (Rh123 imaging). It counts as cell-based. Conditions: polypeptides expressed via rAAV; bath application of 20 μM NMDA. The procedure: Coverslips with primary cultured neurons (DIV15-DIV17) were used to examine mitochondrial membrane potential (Ψm) and mitochondrial calcium signalling, which was performed at room temperature in CO2-independent culture medium (CICM) containing: 10 mM HEPES, 140 mM NaCl, 2.5 mM KCl, 1.0 mM MgCl2, 2.0 mM CaCl2, 1.0 mM Glycine, 35.6 mM Glucose and 0.5 mM Na-pyruvate. All images were obtained by a cooled-CCD camera (iXon 887, Andor) on an upright microscope (BX51WI, Olympus). Fluorescence excitation was provided by a xenon arc lamp in combination with an excitation filter wheel (MT-20, Olympus). Data were collected using Cell^R software (Olympus), analysed using ImageJ and quantified using Igor Pro (WaveMetrics). Ψm was detected with the small molecule fluorescence indicator Rhodamine 123 (Rh123; Molecular Probe™, R302). Primary cultured neurons were loaded with 4.3 μM Rh123 in CICM at 37° C. for 30 min, then washed and left in CICM for another 30 min before recording. At the end of each experiment, the mitochondrial uncoupler FCCP (5 μM, Sigma-Aldrich, Cat #C2920) was applied to the cells to reach the maximal Rh123 fluorescence intensity. Rh123 was imaged with 470±20 nm excitation and 525±25 nm emission wavelengths using a 20× objective. Rh123 fluorescence intensity was measured in the nucleus to minimize contamination from cytosolic mitochondrial signal and Rh123 fluorescence intensity was normalized to the maximum FCCP signal for each region of interest.
Mitochondrial dysfunction is a hallmark of NMDA receptor excitotoxicity and an early event en-route to neuronal death. A parameter that is often used to assess mitochondrial integrity is the mitochondrial membrane potential. A breakdown of the mitochondrial membrane potential can be observed after exposure of hippocampal or cortical neurons to NMDA and indicates excitotoxicity-associated mitochondrial dysfunction. Therefore, the inventors investigated the effect of polypeptides comprising the sequence of SEQ ID NO:5 or SEQ ID NO: 54 as well as of the control TRMP5 sequence (SEQ ID NO: 55) on mitochondrial membrane potential break down in primary mouse hippocampal neurons. Excitotoxicity leading to mitochondrial membrane potential break down was induced with bath application of 20 μM NMDA. After 11 minutes, the mitochondrial uncoupler, carbonylcyanide-p-trifluoromethoxyphenylhydrazone (FCCP) was added. Addition of FCCP leads to break-down of the mitochondrial membrane potential and served as a control of the test system.

The test system is the same in assay [2]. Briefly: NMDA induced cell death (excitotoxicity) in cultured primary neurons. Type of assay: cell-based. The settings on record: polypeptide expressed via rAAV infection on DIV3, NMDA 20 μM for 10 min, cell death assessed 24 h later. As for the experimental part: Primary mouse hippocampal and cortical neurons were prepared and maintained as known. Briefly, hippocampi or cerebral cortex from P0 C57Bl/6NCrl mice were dissociated and plated at a density of 1.2*105/cm^2 in Growth Medium (GM), consisting of Neurobasal A medium (Gibco™, 10888022), 2% serum free B27™ Supplement (Gibco™, 17504044), 1% rat serum (Biowest, S2150), 0.5 mM L-Glutamine (Sigma, G7513) and 0.5% P-S. Cytosine β-D-arabinofuranoside (AraC; Sigma, C1768; 2.8 μM) was added on DIV3 to prevent the proliferation of glial cells. From DIV8, half of the medium was replaced by GM without Rat serum every 48 h until being used for experiments. 24 h before experiments, GM was replaced with transfection medium (10 mM HEPES, pH 7.4, 114 mM NaCl, 26.1 mM NaHCO3, 5.3 mM KCl, 1 mM MgCl2, 2 mM CaCl2, 30 mM glucose, 1 mM glycine, 0.5 mM C3H3NaO3, and 0.001% phenol red and 10% of phosphate-free Eagle's minimum essential medium, supplemented with 7.5 µg/ml insulin, 7.5 µg/ml transferrin and 7.5 ng/ml sodium selenite (ITS Liquid Media Supplement, Sigma-Aldrich Cat #I3146)). Primary hippocampal neurons were used in live cell imaging, cell death experiments, while cortical neurons were used for mRNA and protein extraction analysis.
All viral particles were produced and purified as known in the art. All TRPM4 derived peptides (comprising SEQ ID NO:5, or any of SEQ ID NO:46 to SEQ ID NO:56) were cloned into rAAV backbone by PCR. shRNA against mouse TRPM4 were designed by BLOCK-iT™ RNAi Designer from Thermofisher to target: […] (SEQ ID NO:44, shTRPM4-1) and […] (SEQ ID NO:45, shTRPM4-2). Scramble shRNA (shSCR) has been tested and proven to have no known targets in mice. GPI anchor ([…], e.g. used in SEQ ID NO:53) sequences were synthesized by Eurofins Genomics (Ebersberg, Germany). All primers were synthesized and all plasmids were confirmed by sequencing by Eurofins Genomics.
In order to investigate the role of TRPM4 in NMDA receptor mediated excitotoxicity, the inventors used RNA interference strategies to knock down TRPM4. Cultured primary mouse hippocampus neurons were infected on day 3 in vitro (DIV3) with recombinant adeno-associated viruses (rAAVs) providing for expression of a scramble control (shSCR), shTRPM4-1 (SEQ ID NO:44) or shTRPM4-2 (SEQ ID NO:45). On DIV15-16, neurons were challenged with N-methyl-D-aspartate (NMDA, 20 μM) for 10 min. After NMDA wash out, neurons were kept in the culture medium for another 24 h before analysis. […] Evidently, TRPM4 is thus involved in the process of NMDA receptor mediated excitotoxicity.
In a next step, the inventors tried to identify regions in the mouse TRPM4 protein potentially involved in NMDA receptor mediated excitotoxicity. For this purpose, polypeptide fragments of mouse TRPM4 protein were generated and their impact on NMDA induced excitotoxicity analysed. To do so, primary neuron cultures were infected with respective rAAVs on DIV3, challenged with NMDA (20 μM) for 10 min on DIV17 and cell death assessed 24 hours later.
The sequence of SEQ ID NO:5 in TRPM4 is located in vivo just beneath the plasma membrane. […] To test this hypothesis, the inventors created a fusion protein comprising SEQ ID NO:5 and a GPI anchor, SEQ ID NO:57. The sequence of the fusion is given in SEQ ID NO:53. Neurons infected with rAAV and expressing SEQ ID NO:47 (control) or SEQ ID NO:53 were exposed to NMDA (20 μM) for 10 min on DIV15-16, with cell death assessed after 24 h.
In a next step, the inventors created a mutant of SEQ ID NO:5, in which two adjacent phenylalanine residues where substituted by tyrosine residues (SEQ ID NO: 54). […] TRPM5 is a protein related to but nonetheless distinct to TRPM4. The region in TRPM5 corresponding to SEQ ID NO:5, SEQ ID NO:55, shares only about 60% sequence identity with SEQ ID NO:5. Neurons were infected on DIV3 with rAAVs expressing SEQ ID NO: 5, SEQ ID NO: 54 or SEQ ID NO:55 and exposed to NMDA (20 μM) for 10 min on DIV17, with cell death assessed 24 h later. […]

For assay [3] the test system is unchanged. The description is as above. Type of assay: cell-based. Conditions: neurons incubated 1 h with 1 or 10 μg fusion protein before NMDA 20 μM 10 min; cell death 24 h later.

As to MK-801 maleate [reference compound], the NMDA-induced calcium transients result in the assay with NMDA receptor is “completely blocked”.

As to `CC1(CN)CCN(CC(=O)Nc2cc(Cl)ccc2Cl)C1` (centres unmarked) [P13], the “NMDA receptor induced cell death” value with HEK293 cells is “reduced the level of NMDA receptor induced cell death”.

On to “SEQ ID NO:55: corresponding region of mouse TRPM5, about 60% sequence identity with SEQ ID NO:5, negative control (NSEDRAFALLVRRNHSWSRTTCLHLATEADAKAFFAHDGVQAFLTKIWWGDMATGTP; listed as Mus musculus) [reference compound]”, for which the “NMDA receptor induced mitochondrial membrane potential breakdown” value in assay [1] is “not capable of preventing NMDA receptor induced mitochondrial membrane potential breakdown”. Besides, the results for the “protection against NMDA induced cell death (neuroprotective effect)” value in assay [2] and in assay [2] (listed as SEQ ID NO: 55) were “not capable of reducing NMDA receptor-mediated cell toxicity” and “did not reduce NMDA receptor-mediated cell toxicity”, respectively.

As for `O=C(NCc1ccc(CN2CCC(O)CC2)cc1)C1CC(F)(F)CN1` (centres unmarked) [P9], the “NMDA receptor induced cell death” value with HEK293 cells is given as “reduced the level of NMDA receptor induced cell death”.

As to `CNCC1CCN(C(=O)c2ccc(-n3cnc4ccccc43)cc2)CC1` [P8], in the assay on HEK293 cells, the “NMDA receptor induced cell death” value is reported as “reduced the level of NMDA receptor induced cell death”.

B1: SEQ ID NO:56: fusion protein of SEQ ID NO:5 and protein transduction domain TAT (SEQ ID NO:42) (protein)
chain: RKKRRQRRRSQPNSEERAARLLLRRCPLWGEATCLQLAMQADARAFFAQDGVQSLLTQKWWGEMDSTTP
modifications: Fusion protein composed of TAT peptide and SEQ ID NO: 5
B1: the “protection against NMDA excitotoxicity (cell death)” value in assay [3] was “protected neurons from NMDA excitotoxicity”.
